Source: patent publication US20060293295A1, “Pharmaceutical composition comprising progestogens and/or estrogens and 5-methyl- (6S)-tetrahydrofolate” (priority 2005, published 2006)
Read-outs that look alike come from different tables or passages of the source.

Columns and labels:
[1] = intake at the right time around conception; cited from earlier work
[2] = Compatibility investigation of binary mixtures with vitamin B12 by DSC; assay type: physicochemical; parameters: key to Compatibility: ++ good compatibility expected below the stated temperature; + compatibility below the stated temperature; ++/− indifferent compatibility, possibly good compatibility below the stated temperature; +/−− indifferent compatibility, appears to be compatible below the stated temperature; −(−−−) (strong) interaction, incompatible; −(−−−) (strong) interaction, incompatible; conditions: for Compatibility: binary mixture with vitamin B12, DSC, various gases and temperatures, stated temperature is 60° C. where given; for Comments: binary mixture with vitamin B12, cells wrap, all except Drospirenone and Ethinylestradiol ('very O2-sensitive') continue 'moisture-sensitive'
Description: Both vitamin B12 and 5-methyl-(6S)-tetrahydrofolate are unstable in the presence of atmospheric oxygen and humidity. […] Measurements of the incompatibilities between the intended formulation ingredients were carried out by a thermoanalytical method (DSC, differential scanning calorimetry). This allows incompatibilities to be recognized through low enthalpies of fusion and melting temperatures. These are caused for example by a reduced proportion of crystalline substance and the increase in impurities. In the determination, binary mixtures of excipients or active ingredients in each case with vitamin B12 were investigated, and the compatibility was examined under the influence of various gases and temperatures. […]

[3] = Description: The investigated formulation was prepared (process 2) by mixing the ingredients, granulating with the part of the corn starch used as binder, absorbing the 5-methyl-(6S)-tetrahydrofolate after completion of the granulation process, renewed mixing and tableting. By comparison therewith, polyvinylpyrrolidone was added as binder instead of corn starch to the formulation by process 3.
The difference between process 1 and process 2 derives from the time at which the 5-methyl-(6S)-tetrahydrofolate was added during the preparation of the investigated tablet. In process 1, the 5-methyl-(6S)-tetrahydrofolate was present in the mixture even during the granulation, whereas in process 2 it was absorbed only after the granulation.

[4] = one month
Description: An oral formulation is normally prepared by granulation, tableting and film-coating.

[5] = 50 rpm, 37° C., 0.03 percent aqueous ascorbic acid solution
Description: For this purpose, the tablets were investigated in an in vitro dissolution test using a USP paddle apparatus at 50 rpm and 37° C. in a 0.03 percent aqueous ascorbic acid solution.

[6] = of Metafolin content per tablet immediately after preparation
[7] = per tablet, of specified content 100%, immediately after preparation, average
[8] = vials closed, listed as 5-methyl-(6S)-tetrahydrofolate

Nc1nc2ncc(CNc3ccc(C(=O)N[C@@H](CCC(=O)O)C(=O)O)cc3)nc2c(=O)[nH]1 [folic acid]
reduction of neural tube defects [1]: 50-70%

C[C@]12CCC(=O)C=C1[C@@H]1C[C@@H]1[C@H]1[C@@H]3[C@@H]4C[C@@H]4[C@@]4(CCC(=O)O4)[C@@]3(C)CC[C@@H]12 [Drospirenone]
Compatibility [2]: + | Comments [2]: O2-sensitive

CN1c2c(nc(N)[nH]c2=O)NC[C@@H]1CNc1ccc(C(=O)N[C@@H](CCC(=O)O)C(=O)O)cc1 [Metafolin]
Distribution coefficient, absorption (process 2) [3, 6]: 2.5 | Distribution coefficient, granulation (process 1) [3, 6]: 6.1 | Metafolin content granulation (process 1) ([3]; per tablet, immediately after preparation, average): 88.5% | Metafolin content absorption, PVP (process 3) [3, 7]: 90.5% | Metafolin content absorption, corn starch (process 2) [3, 7]: 96.1% | Metafolin content 25° C./60% rH absorption (process 2) ([4]; vials closed): 92.5% | Metafolin content 25° C./60% rH granulation (process 1) ([4]; vials closed): 74.5% | Metafolin content 40° C./75% rH absorption (process 2) ([4]; vials closed): 90.1% | Metafolin content 40° C./75% rH granulation (process 1) ([4]; vials closed): 58.9% | Metafolin content 40° C./75% rH absorption (process 2) [4, 8]: above 90% | Metafolin content 40° C./75% rH granulation (process 1) [4, 8]: ~60% | Metafolin content 25° C./60% rH absorption PVP (process 3) ([4]; vials open): 89.5% | Metafolin content 25° C./60% rH absorption corn starch (process 2) ([4]; vials open): 92.1% | Metafolin content 25° C./60% rH granulation (process 1) ([4]; vials open): 63.2% | Metafolin content 40° C./75% rH absorption PVP (process 3) ([4]; vials open): 37.7% | Metafolin content 40° C./75% rH absorption corn starch (process 2) ([4]; vials open): 67.7% | Metafolin content 40° C./75% rH granulation (process 1) ([4]; vials open): 43.4% | 5-Methyl-(6S)-tetrahydrofolate process 1 dissolution [%] ([5]; 0 min): 0% | 5-Methyl-(6S)-tetrahydrofolate process 2 dissolution [%] ([5]; 0 min): 0% | 5-Methyl-(6S)-tetrahydrofolate process 1 dissolution [%] ([5]; 10 min): 59.2% | 5-Methyl-(6S)-tetrahydrofolate process 2 dissolution [%] ([5]; 10 min): 81.4% | 5-Methyl-(6S)-tetrahydrofolate process 1 dissolution [%] ([5]; 15 min): 66.8% | 5-Methyl-(6S)-tetrahydrofolate process 2 dissolution [%] ([5]; 15 min): 89.3% | 5-Methyl-(6S)-tetrahydrofolate process 1 dissolution [%] ([5]; 30 min): 73.1% | 5-Methyl-(6S)-tetrahydrofolate process 2 dissolution [%] ([5]; 30 min): 91.3% | 5-Methyl-(6S)-tetrahydrofolate process 1 dissolution [%] ([5]; 45 min): 76.7% | 5-Methyl-(6S)-tetrahydrofolate process 2 dissolution [%] ([5]; 45 min): 91.1% | 5-Methyl-(6S)-tetrahydrofolate process 1 dissolution [%] ([5]; 60 min): 75.8% | 5-Methyl-(6S)-tetrahydrofolate process 2 dissolution [%] ([5]; 60 min): 91.2%

OC[C@H]1O[C@@H](O[C@H]2[C@H](O)[C@@H](O)C(O)O[C@@H]2CO)[C@H](O)[C@@H](O)[C@H]1O (stereo partly drawn) [Lactose]
Compatibility [2]: + | Comments [2]: O2-sensitive,

Magnesium stearate
Compatibility [2]: ++/− | Comments [2]: O2-sensitive,
